In test [1] the test system is IL-15 induced P-STAT5 in human PBMC. Description: PBMC IL-15 Induced P-STAT5. In kind it is cell-based. To be noted: human PBMC, IL-15 final 41 ng/mL; read-out: PBMC IL15_pSTAT5_IC50. In a few lines: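 Flow cytometry gated on total lymphocytes measured STAT5 staining (Alexa Fluor 647 antibody, overnight, 4 °C) in fixed, methanol-permeabilised human PBMC. Cells had received compound for 15 min at 37 °C (0.2% DMSO final), followed by 41 ng/mL final human IL-15 for 15 min.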

Test [2] relates to IL-15 induced STAT5 phosphorylation in human whole blood lymphocytes. The test is described as follows: HWB IL-15 Induced STAT5 Phosphorylation Assay. Format: cell-based. The note with it: Lymphocyte, IL-15 final 50 ng/ml, read-out: HWB_IL15 pSTAT5 IC50. On the procedure:
HWB IL-15 Induced STAT5 Phosphorylation Assay
After serial dilution of the test compounds 1:2 in DMSO at desired concentration (500× of final), the compounds were further diluted in PBS (by adding 4 μL compound/DMSO in 96 μL PBS, [DMSO]=4%, 20× final). To 96-well polypropylene plates were added 90 μl HWB (heparin treated Human Whole Blood)/well, followed by 5 μl/well 4% DMSO in D-PBS or various concentrations of 20× inhibitor in 4% DMSO in D-PBS (w/o Ca^+2 or Mg^+2) to give 1× in 0.2% DMSO. After mixing and incubating for 45 minutes at 37° C., 5 μl D-PBS (unstimulated control) or 20× stocks of 5 μl human IL-15 (final concentration is 50 ng/ml) were added, and mixed three times. After incubating 15 minutes at 37° C., 1× Lyse/Fix Buffer (BD Phosflow 5× Lyse/Fix Buffer) was added to all wells at 1000 μl/well, then incubated for 20 minutes at 37° C. and spun 5 mins at 1200 rpm. After washing in 1000 μl FACS buffer 1× and spinning for 5 mins at 1200 rpm, 400 μl ice cold Perm Buffer III were added to each well. After mixing gently (1-2×) and incubating on ice for 30 minutes, spinning for 5 mins at 1200 rpm without interruption, and washing 1× in cold […] FACS buffer (D-PBS containing 0.1% BSA and 0.1% sodium azide) 250 μl/well of the desired AlexaFluor647-conjugated anti-phospho STATS antibody at 1:125 dilution in FACS buffer was added. Following incubating at 4° C. over night, all the samples were transferred to 96-well polypropylene U-bottom plate, and checked by flow cytometry gated on total lymphocytes.

Test [3] concerns the target T1, JAK3 enzyme (Homo sapiens, UniProt P52333).
T1 sequence (P52333 1-1124): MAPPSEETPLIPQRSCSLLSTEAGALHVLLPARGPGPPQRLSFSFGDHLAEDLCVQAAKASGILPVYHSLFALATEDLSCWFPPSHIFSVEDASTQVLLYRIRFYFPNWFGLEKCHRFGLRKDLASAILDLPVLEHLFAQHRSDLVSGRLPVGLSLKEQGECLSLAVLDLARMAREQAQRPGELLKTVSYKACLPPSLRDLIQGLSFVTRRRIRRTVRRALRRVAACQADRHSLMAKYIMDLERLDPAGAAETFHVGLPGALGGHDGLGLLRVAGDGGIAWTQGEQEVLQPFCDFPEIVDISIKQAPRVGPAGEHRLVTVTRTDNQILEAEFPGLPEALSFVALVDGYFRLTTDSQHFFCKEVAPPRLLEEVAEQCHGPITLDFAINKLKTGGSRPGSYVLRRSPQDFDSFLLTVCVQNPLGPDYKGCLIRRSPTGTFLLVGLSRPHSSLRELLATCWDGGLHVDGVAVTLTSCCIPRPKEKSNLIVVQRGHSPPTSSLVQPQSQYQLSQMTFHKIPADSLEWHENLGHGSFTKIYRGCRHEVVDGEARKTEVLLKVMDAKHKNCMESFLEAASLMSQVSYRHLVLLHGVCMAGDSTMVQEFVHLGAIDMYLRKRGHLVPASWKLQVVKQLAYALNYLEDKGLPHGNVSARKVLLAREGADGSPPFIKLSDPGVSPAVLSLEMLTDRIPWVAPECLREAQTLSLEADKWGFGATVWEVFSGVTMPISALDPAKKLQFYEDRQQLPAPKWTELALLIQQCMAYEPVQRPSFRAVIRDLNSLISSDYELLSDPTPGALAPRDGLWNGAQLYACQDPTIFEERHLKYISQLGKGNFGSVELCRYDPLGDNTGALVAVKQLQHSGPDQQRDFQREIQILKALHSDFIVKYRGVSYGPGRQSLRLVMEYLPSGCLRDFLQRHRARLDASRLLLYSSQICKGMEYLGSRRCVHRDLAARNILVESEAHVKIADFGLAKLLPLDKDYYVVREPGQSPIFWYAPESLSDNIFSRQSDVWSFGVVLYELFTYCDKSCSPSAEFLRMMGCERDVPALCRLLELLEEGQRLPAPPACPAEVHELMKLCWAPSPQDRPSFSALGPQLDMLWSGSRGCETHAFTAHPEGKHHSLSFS
The test is described as follows: JAK Caliper Enzyme Assay at 1 mM ATP. In kind it is biochemical. In a few lines:
(§1)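 Substrate conversion was kept within 20%-30% by adjusting enzyme and incubation for every preparation; peptide phosphorylation was quantified via on-chip mobility shift.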

Test [4] addresses T1, JAK3 enzyme. The test is described as follows: JAK Caliper Enzyme Assay at 4 μM ATP. In kind it is biochemical. The method in brief:
as §1

On to `C=CC(=O)N1CCC(Oc2cnc3[nH]cc(C(=O)NCC(C)C)c3n2)CC1` [Example 222, 2-[(1-acryloylpiperidin-4-yl)oxy]-N-(2-methylpropyl)-5H-pyrrolo[2,3-b]pyrazine-7-carboxamide], for which the IC50 is 280 nM in test [1], 1020 nM in test [2], 53 nM in test [3] and 0.38 nM in test [4].
For `C=CC(=O)N1CCN(c2cnc3[nH]cc(C(=O)NCC4CCCC4)c3n2)CC1` [Example 266, 2-(4-acryloylpiperazin-1-yl)-N-(cyclopentylmethyl)-5H-pyrrolo[2,3-b]pyrazine-7-carboxamide], in that order: 64.2 nM, 528 nM, 22 nM and 0.2 nM.
The matching figures for `C=CC(=O)N1CC[C@@H](Nc2cnc3[nH]cc(C(=O)NCCC(F)(F)F)c3n2)[C@@H](OC)C1` [Example 278, 2-{[(3S,4R)-1-acryloyl-3-methoxypiperidin-4-yl]amino}-N-(3,3,3-trifluoropropyl)-5H-pyrrolo[2,3-b]pyrazine-7-carboxamide]: 272 nM, 2460 nM, 70 nM and 1.23 nM.
For `C=CC(=O)N1CCN(c2cnc3[nH]cc(C(=O)NC4CC(F)(F)C4)c3n2)CC1` [Example 283, 2-(4-acryloylpiperazin-1-yl)-N-(3,3-difluorocyclobutyl)-5H-pyrrolo[2,3-b]pyrazine-7-carboxamide], in that order: 257 nM, 1200 nM, 97 nM and 0.509 nM.
With `C=CC(=O)N1CCN(c2cnc3[nH]cc(C(=O)NC4CCC4)c3n2)CC1` [Example 297, 2-(4-acryloylpiperazin-1-yl)-N-cyclobutyl-5H-pyrrolo[2,3-b]pyrazine-7-carboxamide], the IC50 was 150 nM in test [1], 718 nM in test [2], 45 nM in test [3] and 0.43 nM in test [4].
For `C=CC(=O)N1CCC(C)(Nc2cnc3[nH]cc(C(=O)NCC(C)C)c3n2)CC1` [Example 301, 2-[(1-acryloyl-4-methylpiperidin-4-yl)amino]-N-(2-methylpropyl)-5H-pyrrolo[2,3-b]pyrazine-7-carboxamide], in that order: 387 nM, 3030 nM, 44 nM and 0.431 nM.
The matching figures for `C=CC(=O)N1CCN(c2cnc3[nH]cc(C(=O)NCC(C)(C)C)c3n2)CC1` [Example 304, 2-(4-acryloylpiperazin-1-yl)-N-(2,2-dimethylpropyl)-5H-pyrrolo[2,3-b]pyrazine-7-carboxamide]: 96.8 nM, 524 nM, 29 nM and 0.194 nM.
For the compound `C=CC(=O)N1CC[C@H](Nc2cnc3[nH]cc(C(=O)NCCC(F)(F)F)c3n2)[C@H](OC)C1` [Example 305, 2-{[(3R,4S)-1-acryloyl-3-methoxypiperidin-4-yl]amino}-N-(3,3,3-trifluoropropyl)-5H-pyrrolo[2,3-b]pyrazine-7-carboxamide], the IC50 in test [1] worked out at 278 nM; in test [2], 6380 nM; in test [3] it was 53 nM; in test [4], 0.496 nM.
As to `C=CC(=O)N1CC[C@@H](Nc2cnc3[nH]cc(C(=O)NCCCC(F)(F)F)c3n2)[C@@H](OC)C1` [Example 308, 2-{[(3S,4R)-1-acryloyl-3-methoxypiperidin-4-yl]amino}-N-(4,4,4-trifluorobutyl)-5H-pyrrolo[2,3-b]pyrazine-7-carboxamide], the IC50 in test [1] was determined as 306 nM; in test [2], 775 nM; in test [3] it was 48 nM; in test [4] it was 0.531 nM.
The matching figures for `C=CC(=O)N1CC[C@@H](Nc2cnc3[nH]cc(C(=O)N[C@@H](C)COC)c3n2)[C@@H](OC)C1` [Example 312, 2-{[(3S,4R)-1-acryloyl-3-methoxypiperidin-4-yl]amino}-N-[(2S)-1-methoxypropan-2-yl]-5H-pyrrolo[2,3-b]pyrazine-7-carboxamide]: 310 nM, 704 nM, 56 nM and 1.05 nM.
The matching figures for `C=CC(=O)N1CC[C@@H](Nc2cnc3[nH]cc(C(=O)NCC4CCCC4)c3n2)[C@@H](OC)C1` [Example 313, 2-{[(3S,4R)-1-acryloyl-3-methoxypiperidin-4-yl]amino}-N-(cyclopentylmethyl)-5H-pyrrolo[2,3-b]pyrazine-7-carboxamide]: 243 nM, 986 nM, 46 nM and 0.736 nM.
For `C=CC(=O)N1CCN(c2cnc3[nH]cc(C(=O)N[C@H](CC)CC#N)c3n2)CC1` [Example 315, 2-(4-acryloylpiperazin-1-yl)-N-[(2R)-1-cyanobutan-2-yl]-5H-pyrrolo[2,3-b]pyrazine-7-carboxamide], in that order: 74.9 nM, 211 nM, 26 nM and 0.348 nM.
Turning to `C=CC(=O)N1CC[C@@H](Nc2cnc3[nH]cc(C(=O)N[C@@H]4C[C@H]4C(F)(F)F)c3n2)[C@@H](OC)C1` [Example 316, 2-{[(3S,4R)-1-acryloyl-3-methoxypiperidin-4-yl]amino}-N-[(1R,2R)-2-(trifluoromethyl)cyclopropyl]-5H-pyrrolo[2,3-b]pyrazine-7-carboxamide], the IC50 in test [1] worked out at 294 nM; in test [2] it was 1450 nM; in test [3], 129 nM; in test [4] it was 0.643 nM.
The matching figures for `C=CC(=O)N1CC[C@@H](Nc2cnc3[nH]cc(C(=O)NCC(F)(F)F)c3n2)[C@@H](OC)C1` [Example 317, 2-{[(3S,4R)-1-acryloyl-3-methoxypiperidin-4-yl]amino}-N-(2,2,2-trifluoroethyl)-5H-pyrrolo[2,3-b]pyrazine-7-carboxamide]: 315 nM, 835 nM, 77 nM and 0.979 nM.
The matching figures for `C=CC(=O)N1CCN(c2cnc3[nH]cc(C(=O)N[C@H](CC)CC#N)c3n2)CC1(C)C` [Example 318, 2-(4-acryloyl-3,3-dimethylpiperazin-1-yl)-N-[(2R)-1-cyanobutan-2-yl]-5H-pyrrolo[2,3-b]pyrazine-7-carboxamide]: 214 nM, 1760 nM, 59 nM and 0.535 nM.

For the origin of these results see patent US10703756B2, “Pyrrolo[2,3-D]pyrimidinyl, pyrrolo[2,3-B]pyrazinyl, pyrrolo[2,3-B]pyridinyl acrylamides and epoxides thereof” (Pfizer Inc., priority 2015, dated 2020).
